The test system of this experiment is Plasmodium falciparum. Kind of experiment: GSK_TCMDC: Inhibition of Plasmodium falciparum 3D7 in whole erythrocytes, using parasite LDH activity as an index of growth. It is filed as functional, organism-based. Particulars: Plasmodium falciparum, 3D7.
In turn, `CCN1CCC(N(Cc2ccc(-c3ccc(C(F)(F)F)cc3)cc2)C(=O)Cn2c(CCc3cccc(F)c3F)cc(=O)c3c2CCCC3)CC1` yielded an XC50 of 755 nM. In the case of `Cc1nc2c(s1)c(=O)cc(CCc1cccc(F)c1F)n2CC(=O)N(Cc1ccc(-c2ccc(C(F)(F)F)cc2)cc1)C1CCN(C(C)C)CC1` it was 767 nM; in that of `CCN1CCC(N(CCCCCCc2ccc(C(F)(F)F)cc2)C(=O)Cn2c(CCc3cccc(F)c3F)cc(=O)c3ccccc32)CC1`, 927 nM. Consider `O=[N+]([O-])c1ccc2nccnc2c1`, for which the XC50 came out at 1070 nM.

`CCNc1cc(C(=O)N[C@@H](Cc2ccccc2)[C@H](O)CNC2CCCC2)cc(N2CCCC2=O)c1` gave an XC50 of 83.4 nM. With `Cc1cc(Nc2ccc3ccccc3c2)n2ncnc2n1` the figure was 173 nM; with `CN1CCC(N2CCN(Cc3cccc(-c4cccc(-c5nc6ccccc6[nH]5)c4)c3)CC2)CC1`, 194 nM. With `COc1ccc(CCNc2nc(NCc3ccccc3)c3cc(OC)c(OC)cc3n2)cc1OC` the figure was 326 nM; with `COC(=O)c1cc(C(O)CNC(C)CCCc2ccccc2)ccc1O` (stereo not drawn), 742 nM.

In turn, `Cn1nccc1C(=O)NCCNCc1ccc(-c2ccc(-c3nc4cc(C(F)(F)F)ccc4[nH]3)cc2)cc1` displayed an XC50 of 145 nM. With `Nc1nc(N)c2c(ccc3c2ccn3Cc2ccc(F)cc2)n1`, the XC50 came out at 6.53 nM.

With `CC[C@H]1CN2CC[C@@H]1C[C@H]2[C@H](O)c1cc(-c2cc(Cl)cc(Cl)c2)nc2ccc(OC)cc12`, the XC50 was 235 nM. `COc1c(CCNCCCCNCCc2cc(Cl)c3ccccc3c2OC)cc(Cl)c2ccccc12` yielded an XC50 of 168 nM. In the case of `COc1cc(Cc2cnc(N)nc2N)ccc1Oc1ccc(N)cc1` it was 868 nM; in that of `CCNc1cc(-c2cccc(OC)c2)nc(Nc2ccc(F)cc2)n1`, 1270 nM; in that of `Cc1cc(NCc2ccc(F)cc2)nc2cc(O)ccc12`, 762 nM. `FC(F)(F)c1ccc2[nH]ccc(=NN=CC=Cc3ccccc3)c2c1`: the XC50 turned out to be 1020 nM. With `O=[N+]([O-])c1ccc(Oc2c(Cl)cc(S(=O)(=O)NC3CCC(CN4CCC(c5c[nH]c6ccccc56)CC4)CC3)cc2Cl)c(Cl)c1` (stereo not drawn) the figure was 758 nM. With `Cc1cc(C=C(P(=O)(OC(C)C)OC(C)C)P(=O)(OC(C)C)OC(C)C)c2ccccc2c1O` the figure was 1080 nM; with `CCNc1cc(C(=O)N[C@@H](Cc2ccccc2)[C@H](O)CNCCC(C)c2ccccc2)cc(N2CCCC2=O)c1` (stereo partly drawn), 511 nM. In the case of `O=c1cc(NCCC(CNCCc2ccccc2)NCc2cc(Br)cc(Br)c2)[nH]c2ccccc12` (stereo not drawn) it was 514 nM.

As for `Fc1ccccc1C=NN=c1cc[nH]c2ccc(C(F)(F)F)cc12`, the XC50 came to 871 nM. With `N=c1n(Cc2ccccc2)c2ccccc2n1CC(O)c1ccc(Cl)c(Cl)c1` (stereo not drawn) the figure was 828 nM; with `C=CCN1C(=O)CN(S(=O)(=O)c2ccc(-n3nc(C)cc3C)cc2)C1=S`, 941 nM; with `Fc1ccc2[nH]c(-c3ccc(-c4ccc(CNCC5CCCO5)cc4)s3)nc2c1` (stereo not drawn), 599 nM. With `CCn1c(-c2nonc2N)nc2cnc(Oc3cccc(NC(=O)c4ccc(OCCN(C(C)C)C(C)C)cc4)c3)cc21` the figure was 780 nM; with `CCCc1cc(OC)c(C[C@@H]2c3cc(O)c(Cl)cc3CCN2C)cc1OC`, 722 nM. Regarding `CCCCCCCc1c(C)nc2c(OC)cccc2c1O`, the XC50 worked out at 921 nM. In the case of `CN(Cc1ccccc1)C(=O)CCNS(=O)(=O)c1cc(Br)cnc1N` it was 1130 nM. Molecule `COc1ccc2cc(-c3nc(-c4c(Cl)cccc4Cl)[nH]c3-c3ccnc(NCCCN4CCCCC4C)c3)ccc2c1` (stereo not drawn) had an XC50 of 948 nM. With `COc1ccc(Nc2ncc3c(-c4cccc(NC(=O)Cc5ccc(F)cc5)c4)c[nH]c3n2)cc1OC` the figure was 594 nM; with `CN(C)c1ccc(CN2CCCCC(NC(=O)c3cc(-c4ccccc4Cl)cs3)C2)cc1` (stereo not drawn), 1060 nM; with `COc1cccc2[nH]c(NCCCNCc3cc(Br)cc(Br)c3)nc12`, 950 nM. In the case of `CC(CN(C)C)C(=O)Nc1ccc(-c2cccc(-c3nc4ccccc4[nH]3)c2)cc1` (stereo not drawn) it was 722 nM; in that of `COc1ccc(CNc2ccnc3cc(OC)ccc23)cc1`, 766 nM.

Molecule `O=C(CN1CCC2(CCC1=O)CC(=O)c1ccccc1O2)NCCN1CCOCC1` (stereo not drawn) had an XC50 of 221 nM. With `NC1=NC2(CCCC2)N(c2ccc(Cl)cc2)C(N)=N1` the figure was 414 nM; with `N=C(N)Nc1ccc(CCc2ccc(NC(=N)N)cc2)cc1`, 289 nM. In the case of `CCCCNCc1ccc(OCc2cccc(COc3ccc(CNCCCC)cc3)c2)cc1` it was 318 nM; in that of `CCCNC(=O)Nc1ccc(N(C)c2ccnc(NC3CC3)n2)cc1`, 618 nM.

The molecule `CC(C)Cn1cc2c(ccc3nc(N)nc(N)c32)n1` returned an XC50 of 303 nM. With `Cc1cc(Cc2ccc(S(=O)(=O)c3cc4c(cc3O)CCN(C)CC4)cc2)ccc1Cl` the figure was 911 nM. In turn, `CC(=O)Nc1nc(C(=O)Nc2cccc(-c3ccc(-c4nc5cccc(C)c5[nH]4)cc3)c2)cs1` returned an XC50 of 232 nM. In the case of `CCN(CC)CCNc1nc(C=Cc2ccc(Cl)cc2)nc2cc3ccccc3cc12` it was 147 nM. With `O=C(O)CCc1ccc(-c2c[nH]c3ncc(-c4ccc5ncccc5c4)cc23)cc1` the figure was 302 nM; with `COc1ccc(CC(=O)NC2CCN(c3ccnc4cc(Cl)ccc34)C2)cc1` (stereo not drawn), 241 nM; with `COc1ccc(CNC2CCN(C)CC2)cc1-c1ccc(S(=O)(=O)NCc2ccccc2)c(C)c1`, 992 nM. The molecule `COc1cc(-n2cnc3cc(-c4ccc(Cl)cc4)sc3c2=O)ccc1OCCN1CCC(c2cccc(NC(C)=O)c2)CC1` gave an XC50 of 553 nM. For `O=C(NCCN1CCOCC1)c1ccc(O)c(-c2cccc(C(F)(F)F)c2)c1`, the XC50 amounted to 752 nM. In the case of `CCCOc1ccc(N2C(N)=NC(N)=NC2(C)C)cc1` it was 487 nM; in that of `Cn1ccnc1S(=O)(=O)CCNCc1ccc(-c2ccc3ncnc(Nc4ccc(OCc5cccc(F)c5)c(Cl)c4)c3c2)o1`, 701 nM; in that of `Cc1ccc(-c2nc(Nc3ccncc3)c3ccccc3n2)s1`, 830 nM. With `O=C(Cn1c(=O)oc2ccccc21)N1CCC(n2c(=O)n(CCCN3CCOCC3)c3ccccc32)CC1` the figure was 774 nM. With `Fc1ccc2[nH]c3c(NCCCN4CCOCC4)ncnc3c2c1` the figure was 714 nM; with `COc1ccc2c(=NN=C(C)c3ccccn3)cc(C)[nH]c2c1`, 722 nM. `Cc1cc(-c2ccc3c(c2)CCN(CCC2CCC(NC(=O)/C=C/c4ccccc4F)CC2)CC3)on1` (stereo not drawn) had an XC50 of 811 nM. Regarding `COc1cccc(Nc2nccc(NCC(O)c3ccc(C(F)(F)F)cc3)n2)c1` (stereo not drawn), the XC50 stood at 659 nM. As to `COc1ccc(S(=O)(=O)NCCC2CCN(CCCCCNC(=O)C=Cc3ccc(Cl)c(Cl)c3)CC2)cc1`, the XC50 came out at 957 nM. With `CN1CCN(c2cc(NC(=O)Nc3ccc(-c4ccncc4)c(Cl)c3)ccc2Br)CC1` the figure was 899 nM; with `CC(C)(C)C1CC(=O)CC2C(=O)N(c3ccc(Br)cc3)C(=O)C21` (stereo not drawn), 934 nM; with `c1cc(-c2ccc(CNCc3ccc(-c4csnn4)cc3)cc2)cc(-c2nc3ccccc3[nH]2)c1`, 158 nM. With `Fc1cccc(-c2ccc3c(c2)CC(NCc2c[nH]c4cnccc24)C3)c1` (stereo not drawn) the figure was 480 nM; with `O=C(c1ccc(OCCn2ccnc2)cc1)N1CCC(c2ccc(Br)cc2)C1` (stereo not drawn), 116 nM; with `CS(=O)(=O)c1ccc(-c2cnc(N)c(-c3cccc(CO)c3)c2)cc1`, 939 nM. In the case of `c1ccc(CCNc2ccnc(Nc3ccc4cn[nH]c4c3)n2)cc1` it was 467 nM. `CC1CN(c2cnn(Cc3cccc(NC(=O)Nc4cccc(C(F)(F)F)c4)c3)c(=O)c2Cl)CC(C)N1` (stereo not drawn) had an XC50 of 818 nM. `O=C(/C=C/c1ccc(Cl)cc1Cl)N1CCC(CCN2CCC(c3c[nH]c4ccccc34)CC2)CC1`: the XC50 came to 796 nM. `CC(=O)N1c2ccccc2C(C)=CC1(C)C` came in with an XC50 of 938 nM. `CCc1cccc(C)c1-n1nc(-c2cc(C(C)(C)C)oc2C)cc1N` gave an XC50 of 658 nM. As to `c1ccc2c(NCCCCCCCNc3ccnc4ccccc34)ccnc2c1`, the XC50 was 169 nM. In the case of `CCOc1cc(C)ccc1C1CCN(CCCCNC(=O)c2ccc(-c3ccc(C(F)(F)F)cn3)cc2)CC1` it was 787 nM; in that of `O=C(CSc1nc2ccc([N+](=O)[O-])cc2s1)Nc1ccccc1-c1ccccc1`, 1170 nM; in that of `Cc1cc(NC2CCN(CC3CCCCC3)C2)nc(Nc2ccc(Cl)cc2)n1` (stereo not drawn), 404 nM. In the case of `O=C(Nc1cccc(-c2nc3ccccc3[nH]2)c1)c1ccc(-c2cccc([N+](=O)[O-])c2)o1` it was 151 nM. Take `N#Cc1cccc(NC(=O)Nc2cccc(-c3cccc(-c4nc5ccccc5[nH]4)c3)c2)c1`: the XC50 was 90.2 nM. `CCc1c(C)nc2nc(Cc3cccc(F)c3)nn2c1N1CCN(c2ccccn2)CC1` showed an XC50 of 750 nM.

Take `O=C(Nc1ccc(-c2cccc(-c3nc4cc(C(F)(F)F)ccc4[nH]3)c2)cc1)c1cccnc1`: the XC50 is 725 nM. With `Cc1nc(NCc2ccccc2)cc(NCC(O)c2ccc(O)cc2)n1` (stereo not drawn) the figure was 1230 nM. Molecule `NS(=O)(=O)c1ccc(Nc2nccc(-c3c(-c4cccc(NC(=O)c5c(F)cccc5F)c4)nn4ccccc34)n2)cc1` returned an XC50 of 762 nM. With `CC(C)(C)c1ccc(CN2CCCCC(NC(=O)c3cc(-c4cccc(F)c4)cs3)C2)cc1` (stereo not drawn) the figure was 783 nM. `COc1ccc(Br)cc1C1Nc2ccc3ccccc3c2C2=C1C(=O)CC(c1ccccc1)C2` (stereo not drawn) displayed an XC50 of 590 nM. In the case of `CC(C)C[C@H](NC(=O)c1cccc(F)c1)C(=O)N[C@H](/C=N/NC(=O)c1ccccc1)CCc1ccccc1` it was 715 nM; in that of `Cc1cc(C(=O)Nc2ccc3c(c2)CCN3C2CCN(Cc3ccc(F)cc3Cl)C2)no1` (stereo not drawn), 189 nM. In the case of `CN1CCCc2ccc(NC(=O)c3ccc(-c4cc(C(F)(F)F)nn4C)s3)cc2C1` it was 880 nM. In the case of `Cc1ccc(NC(=O)c2ccc(CN3CCCN(CC4CCCCC4)CC3)cc2)cc1F` it was 290 nM; in that of `c1cc(Nc2nc(-c3ccc(-c4csc(Nc5ccncc5)n4)cc3)cs2)ccn1`, 117 nM.

With `COc1ccc(S(=O)(=O)NC2CCN(c3cc(C)nc(Nc4cccc(C#N)c4)n3)CC2)cc1`, the XC50 came out at 946 nM. In the case of `CN(C)CCCOc1ccc(CCCCc2ccc(Cl)cc2C(=O)c2ccccc2)cc1` it was 1030 nM.

The values are drawn from ChEMBL document CHEMBL1157539, “Thousands of chemical starting points for antimalarial lead identification” (Nature, 2010).
